# Measured values taken from paper PMC4947679, “Quantitative In Vitro and In Vivo Evaluation of Intestinal and Blood-Brain Barrier Transport Kinetics of the Plant N-Alkylamide Pellitorine” (BioMed Research International, 2016).
# Tests used:
# [1] = Blood-to-brain transport, multiple time regression (MTR) analysis in mice; details: mice, injection into jugular vein, MTR
# Protocol: Seven-to-ten-week-old female, Institute for Cancer Research, Caesarean Derived-1 (ICR-CD-1) mice (Harlan Laboratories, Venray, Netherlands) weighing 29–32 g were used for the BBB transport experiments. The experiments were performed according to the Ethical Committee principles of laboratory animal welfare as approved by Ghent University (Faculty of Veterinary Medicine, number EC2014/128).
# An in vivo multiple time regression (MTR) analysis was performed in order to determine whether pellitorine could enter the brain. A dose solution of 1.8 mg/mL pure pellitorine dissolved in 6.9% EtOH, 2.5% dimethylacetamide, and 0.5% tween 80 (all w/w) diluted in lactated Ringer's solution containing 1% BSA was prepared. After anesthetizing the mice intraperitoneally with a 40% (w/V) urethane solution (3 g/kg), the jugular internalis vein and carotid artery were isolated and 20 μL of the pellitorine dose solution was injected into the jugular vein. After 1, 3, 5, 10, 12.5, and 15 min after injection (with start and end in duplicate), blood was collected from the carotid artery. Immediately thereafter, the mice were decapitated and the brains were isolated. […] The serum concentrations of pellitorine were plotted against the time (expressed in min). The curve was fitted using a first-order kinetic, two-compartment model: C(t) = C 1 × e ^−α×t + C 2 × e ^−β×t, in which C is the concentration of pellitorine in serum at time t, α and β are hybrid constants, dependent on the rate constants k e (elimination rate constant), k 1,2 (rate constant between central and peripheral tissue compartment), k 2,1 (rate constant between peripheral tissue and central compartment), C 1 is the concentration obtained after extrapolation of the distribution phase α to the y-axis, and C 2 is the concentration obtained after extrapolation of the elimination phase β to the y-axis. The ratio of the pellitorine brain and serum concentration (μL/g) was plotted versus the exposure time (θ), which is a derived time variable of the Gjedde-Patlak plot, to determine the BBB influx kinetics of pellitorine.
# The exposure time is computed as θ = ∫0 ^T((C s(t) · dt)/C s(T)) and is defined as the integral of the concentration of pellitorine in serum from start (t = 0 min) to time T, divided by the concentration of pellitorine in serum at time T. The integral of the concentration of pellitorine in serum from zero to time T is the area under the curve until time T.
# The brain uptake of pellitorine was fitted using a biphasic model, as elaborated by Wong et al.: (4) CbrainT/CsTK·θ+Vg·1−e^−θ·K1−K/Vg+V0≅K=0Vg·1−e^−θ·K1/Vg+V0 in which C brain(T) is the concentration of pellitorine in the brain at time T (ng/g), C s(T) the concentration of pellitorine in serum at time T (ng/μL), K the net clearance (μL/(g·min)), V g the tissue brain distribution volume (μL/g), K 1 the unidirectional clearance from pellitorine from blood to brain (i.e., the unidirectional brain transfer coefficient, also referred to as influx rate) (μL/(g·min)), and V 0 the vascular brain distribution volume (μL/g).
# [2] = set-up: method as in PMID 19399718; details: oral gavage in rats; cited from earlier work
# [3] = Caco-2 cell permeability assay; format: in vitro ADME, human; details: human, Caco-2; positive (high permeability) control, 20 μM
# Protocol: The Caco-2 cell line originated from a human colorectal carcinoma and was maintained in Dulbecco's modified Eagle's medium (DMEM) (95% humidity, 37°C, 5% CO2), supplemented with 10% (V/V) fetal bovine serum, 100 U/mL penicillin and 100 μg/mL streptomycin, 2 mM L-glutamine, and 1% nonessential amino acids (all from Invitrogen/GIBCO, Ghent, Belgium).
# The Caco-2 cell intestinal model was used to investigate the gut mucosa permeation of pellitorine. On each Transwell (Corning Costar, New York, USA) membrane insert filter (0.4 μm pore size, 12 mm filter diameter), the cells were seeded at a density of 2.6 · 10^5 cells/cm^2 cells and cultivated in the described supplemented DMEM. Every second day, the medium was changed. During a period of 21–29 days, the cells were grown and differentiated until monolayers were formed. The integrity of the monolayers was checked via the measurement of transepithelial electrical resistance (TEER) of the monolayers with a Millicell-ERS system (Millipore Corp., Bedford, MA, USA) before and after the transport experiments. The experiments were performed in duplicate for each dose solution. Transport experiments were carried out according to Hubatsch et al. in two directions: from the apical-to-basolateral (ab) direction and from the basolateral-to-apical (ba) direction in Hanks' Balanced Salt solution. Two dose solutions of pellitorine (in Anacyclus pyrethrum extract) of 1 μg/mL in 0.5% EtOH (further indicated as DS1) and of 56 μg/mL in 0.5% of a mixture of vitamin E-TPGS (33.3%), EtOH (11.1%), PEG 400 (33.3%), and PG (22.2%) (further indicated as DS2) dissolved in HBSS were tested.
# Final apical volumes of 0.4 mL and basolateral volumes of 1.2 mL were used for 12 mm filter supports during the transport experiment. After 15, 30, 60, 90, and 120 min, samples were taken from the receiver compartment (basolateral to apical transport: 100 μL, apical-to-basolateral transport: 300 μL) and immediately replaced by fresh HBSS. […] Pellitorine was quantified using a ultraperformance liquid chromatography-tandem mass spectrometry (UPLC-MS^2) method as described below.
# The apparent permeability coefficient (P app in cm/s) of pellitorine in DS2 was calculated using a sink condition equation, while P app of pellitorine in DS1 was calculated using a nonsink equation. From Fick's first law, J = −D × [dC(x)]/dx (J is the flux or transfer rate along the donor-to-receptor side, D is the diffusion coefficient, x is the distance from the donor compartment, and C(x) is the concentration in the barrier at the coordinate x in the barrier), the following differential equation is derived: dM r(t)/dt = P app × A × [C d(t) − C r(t)], in which P app is the apparent permeability coefficient (a product of distribution coefficient with diffusion coefficient divided by the barrier thickness), M r is the amount of substance in the receiver chamber, A is the cross-sectional area of the barrier, C d is the donor concentration, and C r is the receiver concentration. This differential equation can be solved to calculate P app using different initial conditions depending on sink or nonsink conditions. In case of sink conditions, the following equation was obtained from the amount of compound transported per time dM r(t)/dt with the receiver concentration set to zero [18, 20]:(1) Mrt/Cd,0=Papp×A×t+c, where P app is the apparent permeability coefficient (cm/s), A is the surface area of the filter (1.12 cm^2), C d,0 is the initial concentration in the donor chamber (μg/mL), t is the time (s), and c is a constant term which vanishes, since M r is initially zero at t = 0.
# The donor concentration at each time point was calculated by taking into account the amount of compound which already permeated through the cell monolayer during that time interval. In this way, the reduction in donor concentration after every sampling was also taken into account.
molecule,measurement,setting,value
Dermorphin [reference compound],unidirectional influx rate K 1,[1],0.26 µL/g/min
"dodeca-2E,4E,8E,10E/Z-tetraenoic acid isobutylamides",elimination half-life,[2],1.20 h
"CC(C)NCC(O)COc1cccc2ccccc12 (stereo not drawn) [propranolol, reference compound]","Papp A→B at 120 min, 20 μM",[3],19.1 ×10⁻⁶ cm/s
